Experimental data from US20210246455A1, “MULTIPLEX ASSAY” (priority 2017, published 2021).
“Also recorded” adds a separate entry of the source. Read-outs that look alike come from different tables or passages of the source.

Columns and labels:
[1] = system: 53BP1 foci (DNA double strand breaks) in U2OS^A:Tox^DUPR reporter cells; test: 53BP1-mCerulean foci per nuclei in U2OS^A:Tox^DUPR reporter cells; type: cell-based, human; settings: for number of 53BP1 foci per nuclei: exposed for 8 hr, compared to DMSO/vehicle
Experimental: U2OS acceptor cells were co-transfected a construct containing the recombinase B×b1 and a mutlicistronic Tox reporter (named U2OS^A:Tox^DUPR) carrying three fluorescently labeled proteins: 53BP1-mCerulean that binds to DNA double strand breaks, H2B-mCherry and XBP1Δ-Venus which is a UPR stress related sensor. […] NCS inhibits DNA synthesis, G2 cycle arrest, apoptosis. […] Cells were plated in glass bottom well 384 well plates. To evaluate the specificity of the reporter, together with DNA inducers, three other compounds were used as controls. Thapsigargin, which induced UPR-related stress by inhibiting calcium uptake into ER (Ca^2+ is chaperone cofactor so protein folding is inhibited), tunicamycin that is also involved in UPR-related stress by inhibiting glycosylation of newly synthesized proteins, and aphidicolin which inhibits DNA replication in eukaryotes. All compounds were tested in tetraplicates in four ten-fold serial dilutions with data collection 8 hour after compound addition. Images were acquired in a Nikon Ti-E inverted Microscope equipped with motorized stage with autofocus and OkoLab stage top environmental control chamber (supplied with CO2 and temperature controlled for live cell imaging) (FIG. 11A).
The number of 53BP1-mCerulean was used as a metric for double strand breaks and DNA damage. For each assay, the images were analyzed using the open source software CellProfiler for quantification of the number of foci per nuclei and the data generated was further processed to determine compound EC50S.
Image analysis was conducted using the open source software CellProfiler. After importing the images, nuclei were identified from the H2B-mCherry images as primary objects, followed by enhancement of mCerulean structures, and detection of these enhanced structures as objects. The nuclei and the foci are related and the number of children (foci) per nuclei is counted. Data from CellProfiler was exported to Python programming language for further computation.
Using Python, the data was grouped by well and the average number of foci/nuclei determined. The wells that corresponded to the same conditions were grouped. All the data was exported to GraphPad Prism 7.0 software to generate plots. A non-linear regression was used to fit the data and to calculate the concentration where we observe 50% activity of the enhancer (EC50S) (FIG. 11B)

[2] = system: Ras-MAPK pathway in HEK293 multicolor stable cell line expressing KRas(G12C), C-Raf, Mek and Erk reporters; test: Live-cell imaging of 4-color MAPK reporter cell line (reporter localization); type: cell-based, human; settings: for CRaf localization / Erk localization / KRas localization: treated for four or nine hours, relative to control
Experimental: The two-color stable cell lines were plated in 96 well glass-bottom plates overnight and treated with doxycycline at 1 μg/m1 to induce fluorescent reporter expression. Cells were treated with different compounds for four or nine hours. Cells were imaged with an epifluorescence Nikon™microscope with an OKOLab™ incubator system and images were acquired using a Plan Fluor™40× objective and NIS-Elements® software (Nikon™). An analogous procedure, using N-terminal tagged KRas(G12C), CRaf, Mek and Erk cloned into the multicistronic construct, was used to generate monoclonal, inducible 4-color cell lines with approximately balanced reporter construct expression level (FIG. 4 and FIG. 5, control)
The 4-color lines were used to visualize the MAPK pathway in live cells. HEK293 multicolor stable cell line expressing KRas(G12C), C-Raf, Mek and Erk reporters show correct localization of the 4 proteins at the plasma membrane, plasma membrane and cytoplasm, cytoplasm, nucleus, respectively (FIG. 5). Monitoring of cells under the microscope allowed visualization of the response to Ras-MAPK pathway inhibitors. To monitor response to inhibitors, after protein induction cell were treated with: GDC-0879, FR180204, lovastatin and PD0325901 for four or nine hours.

[3] = system: MAPK pathway activation (mCherry-Erk nuclear localization) in U2OS MAPK R19 cells expressing K-Ras(wt); test: MAPK reporter assay, nuclear versus cytoplasmic mCherry-Erk, U2OS MAPK R19; type: cell-based; settings: Homo sapiens, read-out: IC50 (inhibition of nuclear localization of mCherry-Erk)
Experimental: (§1) Three MAPK reporter cell lines were used to visualize the MAPK pathway in live cells and to analyze dose responses of MAPK inhibitors. U2OS MAPK R19, R20 and R21 multicolor stable cell line expressing mCerulean-CRaf, untagged Mek, mCherry-Erk and Venus-KRas (wt, G12C and G12D, respectively) were plated in glass bottom well 96 well plates. Twenty-four hours after plating cells were treated with doxycycline at 1 μg/ml for 5 h to induce fluorescent reporter expression. Monitoring of cells under the microscope allowed visualization of the response to Ras-MAPK pathway inhibitors. Two inhibitors, Trametinib an inhibitor of Mekl and […], inhibitor of Mek1/2 were used in the assay. […]
(§2) For each assay, the images were analyzed using CellProfiler (open source software for image analysis, Kamensty, L. et al., Bioinformatics (2011)) for quantification of the ratio of nuclear versus cytoplasmic Erk fluorescence intensity and the data generated was further processed to determine compound IC50S.
(§3) Image analysis used the open source software CellProfiler. […] The nuclear area of each cell was subtracted from the cytoplasm area to give the final cytoplasm mask. mCherry intensity for the nucleus and the cytoplasm of each cell was calculated from the original mCherry-Erk image and the nuclear to cytoplasm ratio of mCherry intensity was calculated per cell and exported as a HDFS file for analysis. […]

[4] = system: MAPK pathway activation (mCherry-Erk nuclear localization) in U2OS MAPK R20 cells expressing K-Ras(G12C); test: MAPK reporter assay, nuclear versus cytoplasmic mCherry-Erk, U2OS MAPK R20; type: cell-based; settings: Homo sapiens, read-out: IC50 (inhibition of nuclear localization of mCherry-Erk)
Experimental: as §1, §2, §3

[5] = system: MAPK signaling in cells expressing K-Ras(wt), K-Ras(G12C) and K-Ras(G12D); test: Imaging of mCherry-Erk localization in U2OS^A-Tet MAPK R19, R20 and R21 reporter cell lines; type: cell-based, human; settings: exposed for 1 hr, compared to DMSO treated cells
Experimental: MAPK pathway inhibitors were tested for their ability to inhibit nuclear localization of mCherry-tagged ERK in three different cell lines expressing K-Ras wild type, K-Ras G12C or K-Ras G12D. To quantify these images we calculated the ratio of nuclear to cytoplasmic ERK in single cells for four images per sample and plotted the resulting values as a histogram.
as §1, §2

[6] = system: MAPK pathway activation (mCherry-Erk nuclear localization) in U2OS MAPK R21 cells expressing K-Ras(G12D); test: MAPK reporter assay, nuclear versus cytoplasmic mCherry-Erk, U2OS MAPK R21; type: cell-based; settings: Homo sapiens, read-out: IC50 (inhibition of nuclear localization of mCherry-Erk)
Experimental: as §1, §2, §3

[7] = system: 53BP1 foci in Tox^DUPR reporter cells pooled with Tox^ORG reporter cells; test: Pooled assay, U2OS^A Tox^ORG and Tox^DUPR reporter cells mixed 1:1, 53BP1 foci per nuclei; type: cell-based, human
Experimental: U2OS^A:Tox^DUPR and U2OS^A:Tox^ORG were combined in a pooled assay with an aggregate of […] biosensors and phenotypic readouts (MTS-Venus, H2B-TagBFP, mCherry-LC3, 53BP1-cerulean, XBP1-Venus and H2B-mCherry) where DNA is differently labeled in each of the two reporter cell lines (FIG. 13).
The two U2OS^A Tox^ORG and Tox^DUPR reporter cell lines were mixed 1:1 and plated in 384 well plates 24 h before compound addition. […] NCS inhibits DNA synthesis, G2 cycle arrest, apoptosis. Both compounds are inducers of DNA double strand breaks and consequently increase the number of 53BP1 nuclear foci. Eight hours post compound addition, images were acquired in a Nikon Ti-E inverted Microscope equipped with motorized stage with autofocus and OkoLab stage top environmental control chamber (supplied with CO2 and temperature controlled for live cell imaging) (FIG. 14).

COc1cc([C@@H]2c3cc4c(cc3[C@@H](O[C@@H]3O[C@@H]5CO[C@@H](C)O[C@H]5[C@H](O)[C@H]3O)[C@H]3COC(=O)[C@H]23)OCO4)cc(OC)c1O [Etoposide] was tested, and the EC50 ([1]; Homo sapiens, 8 hour after compound addition, read-out: EC50 (number of 53BP1 foci/nuclei)) was 161 nM.

With Nc1[nH]nc2nnc(-c3c(-c4ccccc4)nn4ccccc34)cc12 [FR180204] the CRaf localization [2] was “moderate increase of CRaf levels at the plasma membrane”.

With CC[C@H](C)C(=O)O[C@H]1C[C@@H](C)C=C2C=C[C@H](C)[C@H](CC[C@@H]3C[C@@H](O)CC(=O)O3)[C@H]21 [Lovastatin] the “displacement of KRas from the cell membrane” value ([2]; ***p<0.0001) was “significant displacement of KRas from the cell membrane”, the CRaf localization [2] was “C-Raf is not enriched at the membrane” and the Erk localization [2] was “changes its localization to the cytoplasm”. The KRas localization [2] was “absence of KRas at the membrane”.

For O=C(NOC[C@H](O)CO)c1ccc(F)c(F)c1Nc1ccc(I)cc1F [PD 0329501], the IC50 ([3]; 1 h) was 9 nM, the IC50 ([4]; 1 h) was 13 nM and the mCherry-Erk localization [5] was “increase of mCherry-Erk at the cytoplasm”. For the same compound, the IC50 ([6]; 1 h) was 76 nM, the CRaf localization [2] was “none of Mek upstream proteins (KRas and C-Raf) showed alteration in localization” and the Erk localization [2] was “redistribution of the downstream effector, Erk, from the nucleus to the cytoplasm”. The KRas localization [2] was “none of Mek upstream proteins (KRas and C-Raf) showed alteration in localization”.

CC(=O)Nc1cccc(-n2c(=O)n(C3CC3)c(=O)c3c(Nc4ccc(I)cc4F)n(C)c(=O)c(C)c32)c1 [Trametinib] was tested, and the IC50 ([3]; cells expressing K-Ras(wt), 1 hour after compound addition) was 9 nM, the IC50 ([4]; cells expressing K-Ras(G12C), 1 hour after compound addition) was 55 nM and the IC50 ([6]; cells expressing K-Ras(G12D), 1 hour after compound addition) was 28 nM.

In the case of C[C@@]1(CO)[C@H](O)CC[C@@]2(C)[C@H]1CC[C@H]1C[C@@H]3C[C@@]12CC[C@]3(O)CO [aphidicolin], the “number of 53BP1 foci per nuclei” value [1] is reported as “do not show any effect in the number of 53BP1 foci”.

For C/C=C(/C)C(=O)O[C@H]1C(C)=C2[C@H]([C@@H]1OC(=O)CCCCCCC)[C@@](C)(OC(C)=O)C[C@H](OC(=O)CCC)[C@@]1(O)[C@H]2OC(=O)[C@@]1(C)O [thapsigargin, Thapsigargin], the “number of 53BP1 foci per nuclei” value [1] was “do not show any effect in the number of 53BP1 foci”.

In the case of neocarzinostatin [NCS], the “number of 53BP1 foci per nuclei” value ([7]; pooled Tox^ORG and Tox^DUPR cells, 8 hr, compared to vehicle) is reported as “increase in the number of foci/nuclei specifically in Tox^DUPR reporter cells; also recorded: increase in the number of foci per nuclei”, the “EC50 (number of 53BP1 foci/nuclei)” value ([7]; pooled with other reporter cell lines (FIG. 14), eight hours post compound addition) is reported as 376 µg/mL and the “EC50 (number of 53BP1 foci/nuclei)” value ([1]; 8 hour after compound addition) is reported as 0.257 µg/mL. For the same compound, the “number of 53BP1 foci per nuclei” value [1] was “increase in the number of foci per nuclei” and the “EC50 (number of 53BP1 foci/nuclei)” value ([1]; reporter cells assayed by itself (FIG. 11B)) was 257 µg/mL.

With tunicamycin the “number of 53BP1 foci per nuclei” value [1] was “do not show any effect in the number of 53BP1 foci”.
